Measurements published in US20260285850A1, “SUBSTITUTED OXAZOLIDINONES AND IMIDAZOLINONES AS HERBICIDES” (FMC CORPORATION, priority 2023, published 2026).

Experiments:
Type in all cases: in vivo
kochia (Bassia scoparia) [1] = test: Test A preemergence soil spray, visual injury rating 0-100; details: 10 days
How it was run: (§1)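 Compound in a non-phytotoxic, surfactant-containing solvent is applied either as a directed soil spray before seedlings emerge or onto emerged plants 2-10 cm tall; pots hold a loam-sand blend. Plants grow 10 days under greenhouse conditions and are rated by eye against untreated controls (0 no effect, 100 complete control).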

[2] = system: blackgrass (Alopecurus myosuroides); test: as above; details: 10 days
How it was run: as §1

[3] = system: green foxtail (Setaria viridis); test: as above; details: 10 days
How it was run: as §1

[4] = system: ryegrass, Italian (italian ryegrass, Lolium multiflorum); test: as above; details: 10 days
How it was run: as §1

soybean (Glycine max) [5] = test: as above; details: 10 days
How it was run: as §1

[6] = system: wheat (Triticum aestivum); test: as above; details: 10 days
How it was run: as §1

[7] = system: oat, wild (wild oat, Avena fatua); test: as above; details: 10 days
How it was run: as §1

[8] = system: barnyardgrass (Echinochloa crus-galli); test: as above; details: 10 days
How it was run: as §1

[9] = system: palmer (palmer amaranth, palmer pigweed, Amaranthus palmeri); test: as above; details: 62 g ai/ha, 10 days, 0 = no effect, 100 = complete control
How it was run: as §1

corn (Zea mays) [10] = test: as above; details: 10 days
How it was run: as §1

[11] = system: ragweed (common ragweed, Ambrosia artemisiifolia); test: as above; details: 10 days
How it was run: as §1

kochia (Bassia scoparia) [12] = test: Test A postemergence application, visual injury rating 0-100
How it was run: as §1

[13] = system: blackgrass (Alopecurus myosuroides); test: as above
How it was run: as §1

[14] = system: green foxtail (Setaria viridis); test: as above
How it was run: as §1

[15] = system: ryegrass, Italian (italian ryegrass, Lolium multiflorum); test: as above
How it was run: as §1

soybean (Glycine max) [16] = test: as above
How it was run: as §1

[17] = system: galium (catchweed bedstraw, Galium aparine); test: as above
How it was run: as §1

[18] = system: horseweed (Erigeron canadensis); test: as above
How it was run: as §1

[19] = system: wheat (Triticum aestivum); test: as above
How it was run: as §1

[20] = system: oat, wild (wild oat, Avena fatua); test: as above
How it was run: as §1

[21] = system: barnyardgrass (Echinochloa crus-galli); test: as above
How it was run: as §1

[22] = system: palmer (palmer amaranth, palmer pigweed, Amaranthus palmeri); test: as above
How it was run: as §1

corn (Zea mays) [23] = test: as above
How it was run: as §1

[24] = system: ragweed (common ragweed, Ambrosia artemisiifolia); test: as above
How it was run: as §1

[25] = system: barnyardgrass (Echinochloa crusgalli); test: Test B flooded paddy test, visual plant response rating 0-100; details: 250 g ai/ha, Flood, applied to paddy water, evaluated after 13 days
How it was run: (§2)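 Greenhouse, 13 d. Seedlings at 2-leaf stage, pots flooded to 3 cm, compound delivered into floodwater, water level held constant. Evaluated visually relative to controls.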

[26] = system: sedge, umbrella (small-flower umbrella sedge, Cyperus difformis); test: as above; details: 250 g ai/ha, Flood, applied to paddy water, evaluated after 13 days
How it was run: as §2

rice (Oryza sativa) = test: as above; details: 250 g ai/ha, Flood, applied to paddy water, evaluated after 13 days
How it was run: as §2

[27] = system: ducksalad (Heteranthera limosa); test: as above; details: 250 g ai/ha, Flood, applied to paddy water, evaluated after 13 days
How it was run: as §2

[28] = 62 g ai/ha, 0 = no effect, 100 = complete control
[29] = 62 g ai/ha, postemergence, 10 days, 0 = no effect, 100 = complete control
[30] = Postemergence, 16 g ai/ha, greenhouse 10 days, 0 no effect, 100 complete control

With `COC(=O)C1=CCC(NC(=O)C2(C)CN(c3cc(F)cc(Cl)c3)C(=O)O2)C1` (stereo not drawn) [Compound 140] as the molecule, how does the “Kochia plant response rating” value (kochia (Bassia scoparia) [1]; 16 g ai/ha, 0 to 100 scale) read?
The value was 50.

And the “Kochia plant response rating (0-100)” value (kochia (Bassia scoparia) [1]; [28])?
The value was 100.

What about the “Blackgrass plant response rating” value ([2]; 16 g ai/ha, 0 to 100 scale) of the same molecule?
Its value is 0.

What about the “Blackgrass plant response rating (0-100)” value [2, 28] of the same molecule?
The value was 50.

What about the “Foxtail, Green plant response rating” value ([3]; 16 g ai/ha, 0 to 100 scale) of the same molecule?
Its value is 80.

What about the “Foxtail, Green plant response rating (0-100)” value [3, 28] of the same molecule?
Its value is 90.

And the “Ryegrass, Italian plant response rating” value ([4]; 16 g ai/ha, 0 to 100 scale)?
Its value is 50.

What about the “Ryegrass, Italian plant response rating (0-100)” value [4, 28] of the same molecule?
Its value is 90.

And the “Soybean plant response rating” value (soybean (Glycine max) [5]; 16 g ai/ha, 0 to 100 scale)?
Its value is 0.

And the “Soybean plant response rating (0-100)” value (soybean (Glycine max) [5]; [28])?
The value was 80.

What about the “Wheat plant response rating” value ([6]; 16 g ai/ha, 0 to 100 scale) of the same molecule?
The value was 40.

And the “Wheat plant response rating (0-100)” value [6, 28]?
The value was 80.

And the “Oat, Wild plant response rating” value ([7]; 16 g ai/ha, 0 to 100 scale)?
The value was 20.

What about the “Oat, Wild plant response rating (0-100)” value [7, 28] of the same molecule?
Its value is 20.

What about the “Barnyardgrass plant response rating” value ([8]; 16 g ai/ha, 0 to 100 scale) of the same molecule?
The value was 50.

And the “Barnyardgrass plant response rating (0-100)” value [8, 28]?
The value was 100.

And the “Pigweed, Palmer plant response rating (0-100)” value [9]?
Its value is 90.

What about the “Corn plant response rating” value (corn (Zea mays) [10]; 16 g ai/ha, 0 to 100 scale) of the same molecule?
The value was 10.

What about the “Corn plant response rating (0-100)” value (corn (Zea mays) [10]; [28]) of the same molecule?
Its value is 60.

And the “Ragweed plant response rating” value ([11]; 16 g ai/ha, 0 to 100 scale)?
The value was 0.

What about the “Ragweed plant response rating (0-100)” value [11, 28] of the same molecule?
Its value is 0.

And the “Kochia plant response rating (0-100)” value (kochia (Bassia scoparia) [12]; [29])?
Its value is 90.

What about the “Kochia plant response rating (0 to 100 scale)” value (kochia (Bassia scoparia) [12]; [30]) of the same molecule?
Its value is 90.

What about the “Blackgrass plant response rating (0-100)” value [13, 29] of the same molecule?
The value was 100.

And the “Blackgrass plant response rating (0 to 100 scale)” value [13, 30]?
Its value is 90.

And the “Foxtail, Green plant response rating (0-100)” value [14, 29]?
Its value is 90.

What about the “Foxtail, Green plant response rating (0 to 100 scale)” value [14, 30] of the same molecule?
Its value is 90.

And the “Ryegrass, Italian plant response rating (0-100)” value [15, 29]?
The value was 80.

And the “Ryegrass, Italian plant response rating (0 to 100 scale)” value [15, 30]?
Its value is 60.

What about the “Soybean plant response rating (0-100)” value (soybean (Glycine max) [16]; [29]) of the same molecule?
The value was 70.

What about the “Soybean plant response rating (0 to 100 scale)” value (soybean (Glycine max) [16]; [30]) of the same molecule?
Its value is 70.

What about the “Galium plant response rating (0-100)” value [17, 29] of the same molecule?
The value was 90.

And the “Galium plant response rating (0 to 100 scale)” value [17, 30]?
The value was 70.

And the “Horseweed plant response rating (0-100)” value [18, 29]?
The value was 90.

And the “Horseweed plant response rating (0 to 100 scale)” value [18, 30]?
The value was 80.

What about the “Wheat plant response rating (0-100)” value [19, 29] of the same molecule?
The value was 90.

And the “Wheat plant response rating (0 to 100 scale)” value [19, 30]?
The value was 80.

What about the “Oat, Wild plant response rating (0-100)” value [20, 29] of the same molecule?
The value was 90.

What about the “Oat, Wild plant response rating (0 to 100 scale)” value [20, 30] of the same molecule?
Its value is 60.

What about the “Barnyardgrass plant response rating (0-100)” value [21, 29] of the same molecule?
The value was 100.

And the “Barnyardgrass plant response rating (0 to 100 scale)” value [21, 30]?
The value was 100.

What about the “Pigweed, Palmer plant response rating (0-100)” value [22, 29] of the same molecule?
Its value is 80.

What about the “Pigweed, Palmer plant response rating (0 to 100 scale)” value [22, 30] of the same molecule?
The value was 60.

What about the “Corn plant response rating (0-100)” value (corn (Zea mays) [23]; [29]) of the same molecule?
The value was 100.

And the “Corn plant response rating (0 to 100 scale)” value (corn (Zea mays) [23]; [30])?
The value was 100.

What about the “Ragweed plant response rating (0-100)” value [24, 29] of the same molecule?
Its value is 70.

And the “Ragweed plant response rating (0 to 100 scale)” value [24, 30]?
The value was 50.

What about the “Plant response rating, Barnyardgrass (0 to 100 scale, 0 is no effect and 100 is complete control)” value [25] of the same molecule?
Its value is 85.

And the “Plant response rating, Sedge, Umbrella (0 to 100 scale, 0 is no effect and 100 is complete control)” value [26]?
The value was 100.

And the “Plant response rating, Rice (0 to 100 scale, 0 is no effect and 100 is complete control)” value (rice (Oryza sativa))?
The value was 65.

What about the “Plant response rating, Ducksalad (0 to 100 scale, 0 is no effect and 100 is complete control)” value [27] of the same molecule?
Its value is 65.
